The record followed here is ChEMBL document CHEMBL4043107, “Stable C-N axial chirality in 1-aryluracil scaffold and differences in in vitro metabolic clearance between atropisomers of PDE4 inhibitor” (Bioorg Med Chem, 2017).

Several values for one entry are separate records, joined by “and”; a condition that tells them apart may be missing. Equal values may be shown once.

The test addresses 3',5'-cyclic-AMP phosphodiesterase 4A (Homo sapiens, UniProt P27815). As to the kind of experiment: Inhibition of human full length recombinant PDE4A1A using FAM-cAMP as substrate after 30 mins by fluorescence based spectrophotometric method.

3',5'-cyclic-AMP phosphodiesterase 4A, sequence (P27815 whole entry): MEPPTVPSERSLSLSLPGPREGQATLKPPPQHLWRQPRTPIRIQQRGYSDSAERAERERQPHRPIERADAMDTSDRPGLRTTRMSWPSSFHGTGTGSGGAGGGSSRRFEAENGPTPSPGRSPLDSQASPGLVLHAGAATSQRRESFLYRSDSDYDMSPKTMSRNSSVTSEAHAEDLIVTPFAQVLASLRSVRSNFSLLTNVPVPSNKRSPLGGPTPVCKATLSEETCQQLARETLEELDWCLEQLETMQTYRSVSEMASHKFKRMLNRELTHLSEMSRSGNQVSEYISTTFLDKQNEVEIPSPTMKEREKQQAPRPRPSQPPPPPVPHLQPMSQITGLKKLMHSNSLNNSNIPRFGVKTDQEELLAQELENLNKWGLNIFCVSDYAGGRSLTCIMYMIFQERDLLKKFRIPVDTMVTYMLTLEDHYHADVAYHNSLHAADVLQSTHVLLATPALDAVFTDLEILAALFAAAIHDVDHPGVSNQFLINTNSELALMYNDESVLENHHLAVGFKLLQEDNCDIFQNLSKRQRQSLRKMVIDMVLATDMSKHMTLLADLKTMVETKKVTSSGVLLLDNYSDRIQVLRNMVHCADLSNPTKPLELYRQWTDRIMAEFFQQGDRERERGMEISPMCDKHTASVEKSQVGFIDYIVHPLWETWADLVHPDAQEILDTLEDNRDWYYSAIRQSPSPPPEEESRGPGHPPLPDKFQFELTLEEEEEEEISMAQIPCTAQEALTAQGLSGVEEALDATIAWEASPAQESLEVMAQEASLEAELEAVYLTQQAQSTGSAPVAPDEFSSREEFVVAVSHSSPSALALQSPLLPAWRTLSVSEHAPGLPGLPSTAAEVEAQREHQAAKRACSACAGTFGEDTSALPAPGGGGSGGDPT

Consider `CCCn1c(=O)c2ccc(N)nc2n(-c2cc(OC)ccc2OC)c1=O`, for which the IC50 was 70 µM and 125 µM.
